Paper PMC8322648, “Brevibacillin 2V Exerts Its Bactericidal Activity via Binding to Lipid II and Permeabilizing Cellular Membranes” (Frontiers in Microbiology, 2021)

Tests used:
[1] = system: membrane of Gram-positive bacteria; conditions: ref Yang et al., 2017; cited from earlier work
Description: A vast number of bacterial non-ribosomally produced peptides (NRPs) have shown strong antimicrobial activity against pathogenic bacteria ([Cochrane et al., 2014]; [Cociancich et al., 2015]; [Hamamoto et al., 2015]; [Ling et al., 2015]; [Süssmuth and Mainz, 2017]). Lipo-tridecapeptides, a class of NRPs, show strong antimicrobial activity against Gram-positive pathogens, including antibiotic-resistant Staphylococcus aureus and Enterococcus spp. ([Barsby et al., 2001], [2006]; [Yang et al., 2016]; [Wu et al., 2019]; [Zhao et al., 2021]). However, many of these lipo-tridecapeptides have shown high ...

[2] = 31P solid-state NMR of Lipid II in liposomes; format: binding; conditions: combined ssNMR, CD and ITC assays
Description: Multi-lamellar vesicles of DOPC doped with 2 mol % Lys-Lipid II in buffer (20 mm HEPES, 100 mm NaCl, and pH = 8) were collected by centrifugation (60,000 × g) and loaded into 3.2 mm ssNMR rotors. For 3.2 mm rotors, we used 200 nmol of antibiotic with 100 nmol of Lipid II. The 1D ^31P ssNMR experiments were performed at 500 MHz (^1H frequency) magnetic field using 10 kHz magic angle spinning (MAS) at 270 K sample temperature.

## Brevibacillin
[1]
  membrane permeabilization: can permeabilize the membrane of Gram-positive bacteria

## Brevibacillin 2V
[2]
  Lipid II binding site: binds to the GlcNAc-MurNAc moiety and/or the pentapeptide of Lipid II
